# According to ChEMBL document CHEMBL3576858, “A natural product based DOS library of hybrid systems” (Eur J Med Chem, 2015):
# Tested on: HepG2
# Test: Cytotoxicity against human HepG2 cells at 100 uM after 24 hrs by MTT colorimetric assay
# Assay type: cell-based
# Settings: hepg2, 24 h
row,SMILES,Activity
1,COC(=O)C1(C(C[N+](=O)[O-])c2ccccc2)C[C@]2(C)c3ccccc3C[C@@H](CO)N2C1=O (mixture of isomers),-55%

# Tested on: Plasmodium falciparum
# Test: Antiplasmodial activity against Plasmodium falciparum 3D7 infected in O positive erythrocytes assessed as inhibition of parasite growth at 500 nM by FACS-based assay
# Assay type: functional
# Settings: not given
row,SMILES,inhibition at 0.5 µM
1,CCOC(=O)[C@]1(c2ccc([N+](=O)[O-])cc2[N+](=O)[O-])C[C@]2(C)c3ccccc3C[C@@H](CN(C)C)N2C1=O,0%
2,CCOC(=O)[C@@]1(c2ccc([N+](=O)[O-])cc2[N+](=O)[O-])C[C@]2(C)c3ccccc3C[C@@H](CN(C)C)N2C1=O,0%

# Tested on: Plasmodium falciparum
# Test: Antiplasmodial activity against Plasmodium falciparum 3D7 infected in O positive erythrocytes assessed as inhibition of parasite growth at 30 uM by FACS-based assay
# Assay type: functional
# Settings: not given
row,SMILES,inhibition at 30 µM
1,CCOC(=O)[C@]1(c2ccc([N+](=O)[O-])cc2[N+](=O)[O-])C[C@]2(C)c3ccccc3C[C@@H](CN(C)C)N2C1=O,48.9%
2,CCOC(=O)[C@@]1(c2ccc([N+](=O)[O-])cc2[N+](=O)[O-])C[C@]2(C)c3ccccc3C[C@@H](CN(C)C)N2C1=O,52.9%

# Tested on: Plasmodium falciparum
# Test: Antiplasmodial activity against Plasmodium falciparum 3D7 infected in O positive erythrocytes assessed as parasitemia at 50 uM after 48 hrs by FACS-based assay (reference value: 3.484%)
# Assay type: functional
# Settings: not given
row,SMILES,Activity
1,CCOC(=O)[C@]1(c2ccc([N+](=O)[O-])cc2[N+](=O)[O-])C[C@]2(C)c3ccccc3C[C@@H](CN(C)C)N2C1=O,1.283%
2,CCOC(=O)[C@@]1(c2ccc([N+](=O)[O-])cc2[N+](=O)[O-])C[C@]2(C)c3ccccc3C[C@@H](CN(C)C)N2C1=O,0.9355%
3,C[C@]12C[C@@]3(C(=O)NCC3c3ccccc3)C(=O)N1[C@H](CO)Cc1ccccc12 (stereo partly specified),1.058%

# Tested on: HepG2
# Test: Cytotoxicity against human HepG2 cells at 10 uM after 24 hrs by MTT colorimetric assay
# Assay type: cell-based
# Settings: hepg2, 24 h
row,SMILES,Activity
1,COC(=O)C1(C(C[N+](=O)[O-])c2ccccc2)C[C@]2(C)c3ccccc3C[C@@H](CO)N2C1=O (mixture of isomers),-3%

# Tested on: Plasmodium falciparum
# Test: Antiplasmodial activity against Plasmodium falciparum 3D7 infected in O positive erythrocytes assessed as inhibition of parasite growth at 40 uM by FACS-based assay
# Assay type: functional
# Settings: not given
row,SMILES,inhibition at 40 µM
1,CCOC(=O)[C@]1(c2ccc([N+](=O)[O-])cc2[N+](=O)[O-])C[C@]2(C)c3ccccc3C[C@@H](CN(C)C)N2C1=O,61.5%
2,CCOC(=O)[C@@]1(c2ccc([N+](=O)[O-])cc2[N+](=O)[O-])C[C@]2(C)c3ccccc3C[C@@H](CN(C)C)N2C1=O,66.5%

# Tested on: Plasmodium falciparum
# Test: Antiplasmodial activity against Plasmodium falciparum 3D7 infected in O positive erythrocytes assessed as inhibition of parasite growth at 20 uM by FACS-based assay
# Assay type: functional
# Settings: not given
row,SMILES,inhibition at 20 µM
1,CCOC(=O)[C@]1(c2ccc([N+](=O)[O-])cc2[N+](=O)[O-])C[C@]2(C)c3ccccc3C[C@@H](CN(C)C)N2C1=O,21.1%
2,CCOC(=O)[C@@]1(c2ccc([N+](=O)[O-])cc2[N+](=O)[O-])C[C@]2(C)c3ccccc3C[C@@H](CN(C)C)N2C1=O,48.1%

# Tested on: HepG2
# Test: Cytotoxicity against human HepG2 cells at 1 uM after 24 hrs by MTT colorimetric assay
# Assay type: cell-based
# Settings: hepg2, 24 h
row,SMILES,Activity
1,COC(=O)C1(C(C[N+](=O)[O-])c2ccccc2)C[C@]2(C)c3ccccc3C[C@@H](CO)N2C1=O (mixture of isomers),-45%

# Tested on: Plasmodium falciparum
# Test: Antiplasmodial activity against Plasmodium falciparum 3D7 infected in O positive erythrocytes assessed as parasitemia at 50 uM after 24 hrs by FACS-based assay (reference value: 1.670%)
# Assay type: functional
# Settings: not given
row,SMILES,Activity
1,CCOC(=O)[C@]1(c2ccc([N+](=O)[O-])cc2[N+](=O)[O-])C[C@]2(C)c3ccccc3C[C@@H](CN(C)C)N2C1=O,1.737%
2,CCOC(=O)[C@@]1(c2ccc([N+](=O)[O-])cc2[N+](=O)[O-])C[C@]2(C)c3ccccc3C[C@@H](CN(C)C)N2C1=O,1.421%
3,C[C@]12C[C@@]3(C(=O)NCC3c3ccccc3)C(=O)N1[C@H](CO)Cc1ccccc12 (stereo partly specified),1.209%

# Tested on: Plasmodium falciparum
# Test: Antiplasmodial activity against Plasmodium falciparum 3D7 infected in O positive erythrocytes assessed as inhibition of parasite growth at 50 uM by FACS-based assay
# Assay type: functional
# Settings: not given
row,SMILES,inhibition at 50 µM
1,C[C@]12CCC(=O)N1[C@H](CO)Cc1ccccc12,19.1%
2,CN(C)C[C@@H]1Cc2ccccc2[C@@]2(C)CCC(=O)N12,12.7%
3,CCOC(=O)C1C[C@]2(C)c3ccccc3C[C@@H](CN(C)C)N2C1=O (stereo partly specified),74.5%
4,CCOC(=O)[C@]1(c2ccc([N+](=O)[O-])cc2[N+](=O)[O-])C[C@]2(C)c3ccccc3C[C@@H](CN(C)C)N2C1=O,89.6%
5,CCOC(=O)[C@@]1(c2ccc([N+](=O)[O-])cc2[N+](=O)[O-])C[C@]2(C)c3ccccc3C[C@@H](CN(C)C)N2C1=O,91.5%
6,C=CCC1(CC=C)C[C@]2(C)c3ccccc3C[C@@H](CO)N2C1=O,3.1%
7,COC(=O)C1(C(C[N+](=O)[O-])c2ccccc2)C[C@]2(C)c3ccccc3C[C@@H](CO)N2C1=O (mixture of isomers),1.9%

# Tested on: Plasmodium falciparum
# Test: Antiplasmodial activity against Plasmodium falciparum 3D7 infected in O positive erythrocytes assessed as inhibition of parasite growth at 10 uM by FACS-based assay
# Assay type: functional
# Settings: not given
row,SMILES,inhibition at 10 µM
1,C[C@]12CCC(=O)N1[C@H](CO)Cc1ccccc12,5.67%
2,CN(C)C[C@@H]1Cc2ccccc2[C@@]2(C)CCC(=O)N12,1.92%
3,CCOC(=O)C1C[C@]2(C)c3ccccc3C[C@@H](CN(C)C)N2C1=O (stereo partly specified),7.19%
4,CCOC(=O)[C@]1(c2ccc([N+](=O)[O-])cc2[N+](=O)[O-])C[C@]2(C)c3ccccc3C[C@@H](CN(C)C)N2C1=O,71.6%
5,CCOC(=O)[C@@]1(c2ccc([N+](=O)[O-])cc2[N+](=O)[O-])C[C@]2(C)c3ccccc3C[C@@H](CN(C)C)N2C1=O,0.385%
6,C=CCC1(CC=C)C[C@]2(C)c3ccccc3C[C@@H](CO)N2C1=O,2.27%
7,COC(=O)C1(C(C[N+](=O)[O-])c2ccccc2)C[C@]2(C)c3ccccc3C[C@@H](CO)N2C1=O (mixture of isomers),1.21%

# Tested on: Plasmodium falciparum
# Test: Antiplasmodial activity against Plasmodium falciparum 3D7 infected in O positive erythrocytes assessed as inhibition of parasite growth at 1 uM by FACS-based assay
# Assay type: functional
# Settings: not given
row,SMILES,inhibition at 1 µM
1,CCOC(=O)[C@]1(c2ccc([N+](=O)[O-])cc2[N+](=O)[O-])C[C@]2(C)c3ccccc3C[C@@H](CN(C)C)N2C1=O,0%
2,CCOC(=O)[C@@]1(c2ccc([N+](=O)[O-])cc2[N+](=O)[O-])C[C@]2(C)c3ccccc3C[C@@H](CN(C)C)N2C1=O,5.77%

# Tested on: Plasmodium falciparum
# Test: Antiplasmodial activity against Plasmodium falciparum 3D7 infected in O positive erythrocytes assessed as parasitemia at 50 uM after 36 hrs by FACS-based assay (reference value: 1.617%)
# Assay type: functional
# Settings: not given
row,SMILES,Activity
1,CCOC(=O)[C@]1(c2ccc([N+](=O)[O-])cc2[N+](=O)[O-])C[C@]2(C)c3ccccc3C[C@@H](CN(C)C)N2C1=O,1.217%
2,CCOC(=O)[C@@]1(c2ccc([N+](=O)[O-])cc2[N+](=O)[O-])C[C@]2(C)c3ccccc3C[C@@H](CN(C)C)N2C1=O,1.571%
3,C[C@]12C[C@@]3(C(=O)NCC3c3ccccc3)C(=O)N1[C@H](CO)Cc1ccccc12 (stereo partly specified),1.255%
